Tested on: normal rats
Experiment: Water maze test (acquisition latency)
Format: in vivo, rat
Conditions: oral, every day from 7 days before and during the test, male Wister rats
Procedure: Male Wister rats (7-weeks-old) were used for a water maze test. A circular plastic water tank (diameter 180 cm, depth 45 cm) was used. The inside of the water tank was completely painted in black, and dark water with India ink was filled up to 25 cm from the bottom (22° C.). A platform (diameter 11 cm) painted in black was placed in water such that it was 1 cm below the water surface. The water tank was placed in a test room, and several marks seen by the rat from the water tank were put thereon. During the test, the position of the marks was not changed. A platform was placed a predetermined position from the equal distance from the center and the end of the water tank, namely, center of one quadrant. At one of the randomly selected 5 points, the rat was released facing the wall of the water tank, and the time necessary for evacuating on the platform (acquisition latency) was measured. When smoothly evacuated, the rat was left on the platform for 10 seconds. From 7 days before the water maze test and during the test, DLPC (5 mg/kg) alone, DLPC (10 mg/kg) alone, POPC (5 mg/kg) alone, POPC (10 mg/kg) alone, DLPC (5 mg/kg) and POPC (5 mg/kg), or PEG alone, each dissolved in polyethylene glycol (PEG), was orally administered every day. The water maze test m was performed twice a day, and the second test was started at 2 min after the first test. The test was continuously performed for 8 days, and the mean (±SEM) of acquisition latency of continuous 2 days until the rat reached the platform was calculated.
PEG, DLPC (5 mg/kg), DLPC (10 mg/kg), POPC (5 mg/kg), POPC (10 mg/kg) or DLPC (5 mg/kg) and POPC (5 mg/kg) was orally administered to rats every day during the water maze test from 7 days before the test.

How did the “acquisition latency of the rat” value (single administration 5 mg/kg) turn out when `CCCCC/C=C\C/C=C\CCCCCCCC(=O)OC[C@H](COP(=O)([O-])OCC[N+](C)(C)C)OC(=O)CCCCCCC/C=C\C/C=C\CCCCC` [DLPC, 1,2-dilinoleoyl-sn-glycero-3-phosphocholine] was run?
Its value is “did not show a remarkable effect”.

And the “acquisition latency of the rat” value (single administration 10 mg/kg)?
The value was “did not show a remarkable effect”.

Which results are given for `CCCCCCCC/C=C\CCCCCCCC(=O)O[C@H](COC(=O)CCCCCCCCCCCCCCC)COP(=O)([O-])OCC[N+](C)(C)C` [POPC, 1-palmitoyl-2-oleoyl-sn-glycero-3-phosphocholine]?
acquisition latency of the rat (single administration 5 mg/kg): did not show a remarkable effect; acquisition latency of the rat (single administration 10 mg/kg): did not show a remarkable effect

Source: US20130274228A1, “CONCOMITANT DRUG FOR IMPROVING COGNITIVE FUNCTION” (Nishizaki Bioinformation Research Institute, priority 2010, published 2013)
